Source: ChEMBL document CHEMBL3994617, “2,8-bis(trifluoromethyl)quinoline analogs show improved anti-Zika virus activity, compared to mefloquine” (Eur J Med Chem, 2017)

Key:
[1] = tested on: Zika virus; test: Antiviral activity against Zika virus infected in African green monkey Vero cells assessed as inhibition of viral RNA replication at 10 uM after 24 hrs by RT-PCR method relative to control; format: functional
[2] = tested on: Zika virus; test: Antiviral activity against Zika virus infected in African green monkey Vero cells assessed as inhibition of viral RNA replication after 24 hrs by RT-PCR method; format: functional
[3] = tested on: Zika virus; test: Potency index, ratio of mefloquine EC50 to test compound EC50 for Zika virus infected in African green monkey Vero cells; format: functional
[4] = Selectivity index, ratio of CC50 for African green monkey Vero cells to EC50 for Zika virus infected in African green monkey Vero cells; format: toxicity; settings: read-out: Ratio CC50/EC50
[5] = Cytotoxicity against African green monkey Vero cells assessed as reduction in cell viability after 72 hrs by XTT assay; format: cell-based; settings: chlorocebus sabaeus
[6] = tested on: Vero; test: Cytotoxicity against African green monkey Vero cells assessed as reduction in cell viability at 10 uM after 72 hrs by XTT assay relative to control; format: cell-based; settings: chlorocebus sabaeus
[7] = tested on: Zika virus; test: Potency index, ratio of chloroquine EC50 to test compound EC50 for Zika virus infected in African green monkey Vero cells; format: functional

COc1cc(C(F)(F)F)nc2c(C(F)(F)F)cccc12 showed an inhibition at 10 µM [1] of 12%.
In the case of OCCNc1cc(C(F)(F)F)nc2c(C(F)(F)F)cccc12, the EC50 [2] is reported as 0.8 µM, the “Ratio EC50” value [3] is reported as 5 and the selectivity ratio [4] is reported as 236. For the same compound, the CC50 at 72 h [5] was 189 µM and the inhibition at 10 µM [1] was 74.4%.
With NCCCCCCCCCCNc1cc(C(F)(F)F)nc2c(C(F)(F)F)cccc12 the Activity [6] was > 80%.
For NCCNc1cc(C(F)(F)F)nc2c(C(F)(F)F)cccc12, the EC50 [2] was 0.8 µM, the “Ratio EC50” value [3] was 5 and the selectivity ratio [4] was 243. For the same compound, the CC50 at 72 h [5] was 195 µM and the inhibition at 10 µM [1] was 78.6%.
For FC(F)(F)c1cc(NCCCl)c2cccc(C(F)(F)F)c2n1, the EC50 [2] was 1.4 µM, the “Ratio EC50” value [3] was 3 and the selectivity ratio [4] was 225. The CC50 at 72 h [5] was 316 µM and the inhibition at 10 µM [1] was 86.9%.
With CCCCNc1cc(C(F)(F)F)nc2c(C(F)(F)F)cccc12 the inhibition at 10 µM [1] was 58.8%.
For NCCCNc1cc(C(F)(F)F)nc2c(C(F)(F)F)cccc12, the EC50 [2] was 2 µM, the “Ratio EC50” value [3] was 2 and the selectivity ratio [4] was 143. It also gave a CC50 at 72 h [5] of 287 µM and an inhibition at 10 µM [1] of 79.9%.
O[C@@H](c1cc(C(F)(F)F)nc2c(C(F)(F)F)cccc12)[C@H]1CCCCN1 [(S,R)-MEFLOQUINE] showed an EC50 [2] of 3.6 µM, a selectivity ratio [4] of 58 and a CC50 at 72 h [5] of 212 µM. The “Ratio EC50” value [7] was 3 and the inhibition at 10 µM [1] was 78.8%.
In the case of CCN(CC)CCCC(C)Nc1ccnc2cc(Cl)ccc12 (stereo not given) [CHLOROQUINE], the EC50 [2] is reported as 12 µM and the CC50 at 72 h [5] is reported as 412 µM.
